Patent publication US20220298213A1, “IN VIVO ENGINEERED CEREBLON PROTEIN” (Vividion Therapeutics, Inc., priority 2018, published 2022)

Columns and labels:
Test in all cases: Inhibition of probe labeling at screening concentration (Table 1)
Assay type in all cases: binding
PRTN_J = details: 500 μM
Procedure: (§1) Cells were resuspended in cold PBS on ice and sonicated with a probe sonicator to achieve lysis. 200 μL of lysate containing 5 mg/ml proteome was treated with 2 μL of 100× compound stock in a 2-mL deep-well plate. The treated lysate was subsequently incubate at 25° C. for 1 hr with shaking at 600 rpm. The treated lysate was further incubated with 2 μL of 10 mM desthiobiotin iodoacetamide probe at 25° C. for 1 hr with shaking at 600 rpm. Next, the lysate was further treat with 20 μL of solution of PBS containing 11 mM MgSO4 and 2.5% Turbonuclease stock and incubated at 25° C. for 20 minutes with shaking at 600 rpm. 1.7 mL ice-cold acetone was added to each well and incubated at −20° C. for 2 hr, followed by max speed (4200 rpm) spin for 45 min. Acetone was then decanted and the plates were blotted to remove acetone. The plates were then dried in open air for 20 minutes. After drying, the plates were then covered with foil seal and stored at −80° C. overnight.

PRTN_C = details: 500 μM
Procedure: as §1

PRTN_I = details: 500 μM
Procedure: as §1

PRTN_F = details: 500 μM
Procedure: as §1

PRTN_D = details: 500 μM
Procedure: as §1

PRTN_K = details: 500 μM
Procedure: as §1

PRTN_H = details: 500 μM
Procedure: as §1

PRTN_E = details: 500 μM
Procedure: as §1

PRTN_A = details: 500 μM
Procedure: as §1

PRTN_G = details: 500 μM
Procedure: as §1

PRTN_B = details: 500 μM
Procedure: as §1

CRBN-287 = CRBN-287 (Homo sapiens, UniProt Q96SW2); parameters: endogenous in cells; host or cells: cell lysate; details: native folded protein, read-out: Percentage inhibition of probe labeling, CRBN_287
Chain of CRBN-287 (Q96SW2 whole entry): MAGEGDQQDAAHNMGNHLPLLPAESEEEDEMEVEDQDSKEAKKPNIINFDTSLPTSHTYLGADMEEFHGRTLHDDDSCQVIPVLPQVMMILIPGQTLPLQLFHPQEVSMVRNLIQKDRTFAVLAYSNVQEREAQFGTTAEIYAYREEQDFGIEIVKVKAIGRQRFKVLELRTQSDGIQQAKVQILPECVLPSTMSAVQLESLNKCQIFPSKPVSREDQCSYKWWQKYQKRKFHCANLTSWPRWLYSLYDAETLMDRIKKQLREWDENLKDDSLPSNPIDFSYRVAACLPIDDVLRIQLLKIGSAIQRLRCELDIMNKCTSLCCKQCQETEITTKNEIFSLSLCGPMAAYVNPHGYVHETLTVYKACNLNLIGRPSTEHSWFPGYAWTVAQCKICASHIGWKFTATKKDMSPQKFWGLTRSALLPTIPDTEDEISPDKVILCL
Procedure: as §1

CRBN-318 = CRBN-318 (Homo sapiens, UniProt Q96SW2); parameters: endogenous in cells; host or cells: cell lysate; details: native folded protein, read-out: Percentage inhibition of probe labeling, CRBN_318
Chain of CRBN-318 (Q96SW2 whole entry): as above
Procedure: as §1

Compound	Percentage inhibition of probe labeling, PRTN_J (PRTN_J) [%]	Percentage inhibition of probe labeling, PRTN_C (PRTN_C) [%]	Percentage inhibition of probe labeling, PRTN_I (PRTN_I) [%]	Percentage inhibition of probe labeling, PRTN_F (PRTN_F) [%]	Percentage inhibition of probe labeling, PRTN_D (PRTN_D) [%]	Percentage inhibition of probe labeling, PRTN_K (PRTN_K) [%]	Percentage inhibition of probe labeling, PRTN_H (PRTN_H) [%]	Percentage inhibition of probe labeling, PRTN_E (PRTN_E) [%]	Percentage inhibition of probe labeling, PRTN_A (PRTN_A) [%]	Percentage inhibition of probe labeling, PRTN_G (PRTN_G) [%]	Percentage inhibition of probe labeling, PRTN_B (PRTN_B) [%]	inhibition at 500 µM (CRBN-287) [%]	inhibition at 500 µM (CRBN-318) [%]
CCc1ccccc1-c1cccc(NC2CCN(C(=O)/C=C/CC(C)C)CC2)c1	11	14	14	2	17	22	4	12	10	13	3	98	96
C=CC(=O)N1CCC(Nc2cc(C(N)=O)cc(-c3ccccc3CC)c2)CC1	7	19	−1	4	18	12	6	8	−2	6	0	97	98
C=CC(=O)N1CCC(Cc2cccc(-c3ccccc3NC(C)=O)c2)CC1	21	3	−1	7	8	20	2	9	8	12	8	69	71
C=CC(=O)N1CCC(Oc2cc(C)cc(-c3ccccc3OC)c2)CC1	6	18	7	6	9	13	9	11	7	13	2	94	94
